Test results from PubChem BioAssay AID1259408 (Genetic Toxicology Data Bank (GENE-TOX), 2018).
The source made the active and inactive calls. The rule behind the calls is not given here.

Tested on: GENE-TOX genotoxicity assays, various organisms and cells
Experiment: GENE-TOX mutagenicity studies
Conditions: for call: Assay Type: In vivo carcinogenicity studies
[1] = Species/Cell Type: Chinese hamster lung (V79) cells, Assay Type: Forward gene mutation at the HPRT or ouabain locus, Assay Code: V79-, Evaluation Type: Evaluation A (Pre-1980)
[2] = Species/Cell Type: Drosophila melanogaster, Assay Type: Sex-linked recessive lethal gene mutation, Assay Code: SRL+, Evaluation Type: Evaluation A (Pre-1980)
[3] = Species/Cell Type: Nonhuman, Assay Code: CCG+L, Evaluation Type: Evaluation A (Pre-1980)
[4] = Species/Cell Type: Mammalian polychromatic erythrocytes, Assay Type: Micronucleus test, chromosome aberrations, Assay Code: MNT+, Evaluation Type: Evaluation A (Pre-1980)
[5] = Species/Cell Type: Human lymphocytes, Assay Type: Sister-chromatid exchange (SCE) in vitro, Assay Code: SCL+, Evaluation Type: Evaluation B (Post-1980)
[6] = Species/Cell Type: Human, Assay Type: Sister-chromatid exchange (SCE) in vitro, Assay Code: SC1+, Evaluation Type: Evaluation B (Post-1980)
[7] = Species/Cell Type: Allium cepa, Assay Type: Chromosome aberrations, Assay Code: ALC-, Evaluation Type: Evaluation A (Pre-1980)
[8] = Species/Cell Type: Nonhuman, Assay Code: CCG+, Evaluation Type: Evaluation A (Pre-1980)
[9] = Species/Cell Type: Escherichia coli polA (W3119 vs P3478), Assay Type: Rec-assay, DNA effects (bacterial DNA repair), Assay Code: RE1+, Evaluation Type: Evaluation A (Pre-1980)
[10] = Species/Cell Type: Syrian hamster embryo (SHE) cells, Assay Type: Cell transformation, clonal assay, Assay Code: CTC+, Evaluation Type: Evaluation A (Pre-1980)

With `C=Cc1ccccc1` the mutagenic call [1] was “inactive; negative”, the mutagenic call [2] was “active; positive” and the mutagenic call (Species/Cell Type: Human diploid fibroblasts, Assay Type: Unscheduled DNA synthesis (UDS) in vitro, DNA effects, Assay Code: UDH-*, Activation: With metabolic activation, Evaluation Type: Evaluation A (Pre-1980)) was “inactive; negative”. The mutagenic call (Species/Cell Type: Human lymphocytes or leukocytes, Assay Type: Chromosome aberrations in vivo, Assay Code: CY8+, Evaluation Type: Evaluation A (Pre-1980)) was “active; positive”, the mutagenic call (Species/Cell Type: Human lymphocytes, Assay Type: Micronucleus test in vitro, chromosome aberrations, Assay Code: MN7+, Evaluation Type: Evaluation A (Pre-1980)) was “active; positive” and the mutagenic call (Species/Cell Type: Human lymphocytes, Assay Type: Sister-chromatid exchange (SCE) in vitro, Assay Code: SCL+D, Dose Response: With dose response, Evaluation Type: Evaluation B (Post-1980)) was “active; positive”. The mutagenic call (Species/Cell Type: Human lymphocytes, Assay Type: Sister-chromatid exchange (SCE) in vivo, Assay Code: SCY+, Evaluation Type: Evaluation B (Post-1980)) was “active; positive”, the mutagenic call (Species/Cell Type: Human, Assay Type: Sister-chromatid exchange (SCE) in vitro, Assay Code: SC1+D, Dose Response: With dose response, Evaluation Type: Evaluation B (Post-1980)) was “active; positive” and the mutagenic call (Species/Cell Type: Mammalian polychromatic erythrocytes, Assay Type: Micronucleus test, chromosome aberrations, Assay Code: MNT+, Evaluation Type: Evaluation B (Post-1980)) was “active; positive”. For the same molecule, the call [3] was “active; positive”, the mutagenic call (Species/Cell Type: Nonhuman, Assay Type: Sister-chromatid exchange (SCE) in vivo, Assay Code: SC3+D, Dose Response: With dose response, Evaluation Type: Evaluation B (Post-1980)) was “active; positive” and the mutagenic call (Species/Cell Type: Plant, Assay Type: Micronucleus test, chromosome aberrations, Assay Code: MNP+, Evaluation Type: Evaluation A (Pre-1980)) was “active; positive”. For the same molecule, the mutagenic call (Species/Cell Type: Saccharomyces cerevisiae, Assay Type: Forward and reverse gene mutation, mitotic recombination and gene conversion, host-mediated assay, Assay Code: HME+, Evaluation Type: Evaluation A (Pre-1980)) was “active; positive”, the mutagenic call (Species/Cell Type: Saccharomyces cerevisiae, Assay Type: Mitotic recombination or gene conversion, Assay Code: YEC+*, Activation: With metabolic activation, Evaluation Type: Evaluation A (Pre-1980)) was “active; positive” and the mutagenic call (Species/Cell Type: Salmonella typhimurium (one or more of the five standard strains: TA98, TA100, TA1535, TA1537, and TA1538), Assay Type: Histidine reverse gene mutation, Ames assay, Assay Code: SAL+*, Activation: With metabolic activation, Evaluation Type: Evaluation A (Pre-1980)) was “active; positive”. The mutagenic call (Species/Cell Type: Schizosaccharomyces pombe, Assay Type: Forward gene mutation, Assay Code: YEYT, Evaluation Type: Evaluation A (Pre-1980)) was “no conclusion” and the mutagenic call (Species/Cell Type: Syrian hamster embryo (SA7/SHE) cells, Assay Type: Cell transformation, viral enhanced, Assay Code: CT7-, Evaluation Type: Evaluation A (Pre-1980)) was “inactive; negative”.
With `CN1CCN(CC(=O)N/N=C/c2ccc([N+](=O)[O-])o2)CC1` the mutagenic call (Species/Cell Type: Escherichia coli WP2, Assay Type: Tryptophan reverse gene mutation, Assay Code: WP2-, Evaluation Type: Evaluation A (Pre-1980)) was “inactive; negative”, the mutagenic call [4] was “active; positive” and the mutagenic call (Species/Cell Type: Rodents, Sex: Male, Assay Type: Dominant lethal test, Assay Code: DLT-, Evaluation Type: Evaluation A (Pre-1980)) was “inactive; negative”. The mutagenic call (Species/Cell Type: Saccharomyces cerevisiae, Assay Type: Mitotic recombination or gene conversion, Assay Code: YEC+, Evaluation Type: Evaluation A (Pre-1980)) was “active; positive”.
With `CCN(CCCl)CCCNc1c2ccccc2nc2ccccc12` the mutagenic call (Species/Cell Type: Chinese hamster ovary (CHO) cells, Assay Type: Forward gene mutation at the HPRT locus, Assay Code: CHO+, Evaluation Type: Evaluation B (Post-1980)) was “active; positive”.
`CC[C@]1(O)CC2CN(CCc3c([nH]c4ccccc34)[C@@](C(=O)OC)(c3cc4c(cc3OC)N(C=O)[C@H]3[C@@](O)(C(=O)OC)[C@H](OC(C)=O)[C@]5(CC)C=CCN6CC[C@]43[C@@H]65)C2)C1` (some centres undefined) was tested, and the mutagenic call (Species/Cell Type: Human lymphocytes, Assay Type: Sister-chromatid exchange (SCE) in vitro, Assay Code: SCL+, Evaluation Type: Evaluation A (Pre-1980)) was “active; positive”, the mutagenic call [5] was “active; positive” and the mutagenic call (Species/Cell Type: Human lymphocytes, Assay Type: Sister-chromatid exchange (SCE) in vitro, Assay Code: SCLT, Evaluation Type: Evaluation B (Post-1980)) was “no conclusion”. The mutagenic call [6] was “active; positive”, the mutagenic call (Species/Cell Type: Human, Assay Type: Sister-chromatid exchange (SCE) in vitro, Assay Code: SC1T, Evaluation Type: Evaluation B (Post-1980)) was “no conclusion” and the mutagenic call [4] was “active; positive”. For the same molecule, the mutagenic call (Species/Cell Type: Mouse (C3H/10T1/2) cells, Assay Type: Cell transformation, Assay Code: CTH-, Evaluation Type: Evaluation A (Pre-1980)) was “inactive; negative”, the mutagenic call (Species/Cell Type: Nonhuman, Assay Type: Sister-chromatid exchange (SCE) in vitro, Assay Code: SC2+, Evaluation Type: Evaluation B (Post-1980)) was “active; positive” and the mutagenic call (Species/Cell Type: Nonhuman, Assay Type: Sister-chromatid exchange (SCE) in vivo, Assay Code: SC3T, Evaluation Type: Evaluation B (Post-1980)) was “no conclusion”.
For `O=c1[nH]cnc2nc[nH]c12`, the mutagenic call [7] was “inactive; negative”, the mutagenic call (Species/Cell Type: Arabidopsis species, Assay Type: Gene mutation, Assay Code: ARM-, Evaluation Type: Evaluation A (Pre-1980)) was “inactive; negative” and the mutagenic call (Species/Cell Type: Nonhuman, Assay Type: Sister-chromatid exchange (SCE) in vitro, Assay Code: SC2T, Evaluation Type: Evaluation B (Post-1980)) was “no conclusion”.
For `ClCCN(CCCl)c1ccc2ccccc2c1`, the mutagenic call [2] was “active; positive”, the call [3] was “active; positive” and the mutagenic call (Species/Cell Type: Salmonella typhimurium (one or more of the five standard strains: TA98, TA100, TA1535, TA1537, and TA1538), Assay Type: Histidine reverse gene mutation, Ames assay, Assay Code: SAL+, Evaluation Type: Evaluation A (Pre-1980)) was “active; positive”. For the same molecule, the mutagenic call (Species/Cell Type: Syrian hamster embryo (SA7/SHE) cells, Assay Type: Cell transformation, viral enhanced, Assay Code: CT7+, Evaluation Type: Evaluation A (Pre-1980)) was “active; positive”.
In the case of `CSc1ccc([C@H](O)[C@H](CO)NC(=O)C(Cl)Cl)cc1`, the mutagenic call (Species/Cell Type: Salmonella typhimurium (one or more of the five standard strains: TA98, TA100, TA1535, TA1537, and TA1538), Assay Type: Histidine reverse gene mutation, Ames assay, Assay Code: SALT, Evaluation Type: Evaluation A (Pre-1980)) is reported as “no conclusion”.
In the case of `Cc1cc(O)ccc1[N+](=O)[O-]`, the mutagenic call (Species/Cell Type: Allium cepa, Assay Type: Chromosome aberrations, Assay Code: ALC+, Evaluation Type: Evaluation A (Pre-1980)) is reported as “active; positive”.
For `C=CC(O)c1ccc2c(c1)OCO2` (centres undefined), the mutagenic call (Species/Cell Type: Drosophila melanogaster, Assay Type: Sex-linked recessive lethal gene mutation, Assay Code: SRLT, Evaluation Type: Evaluation A (Pre-1980)) was “no conclusion”, the mutagenic call (Species/Cell Type: Escherichia coli polA (W3119 vs P3478), Assay Type: Rec-assay, DNA effects (bacterial DNA repair), Assay Code: RE1-, Evaluation Type: Evaluation A (Pre-1980)) was “inactive; negative” and the mutagenic call (Species/Cell Type: Human diploid fibroblasts, Assay Type: Unscheduled DNA synthesis (UDS) in vitro, DNA effects, Assay Code: UDH+, Evaluation Type: Evaluation A (Pre-1980)) was “active; positive”. The call [8] was “active; positive”, the mutagenic call (Species/Cell Type: Saccharomyces cerevisiae, Assay Type: Mitotic recombination or gene conversion, Assay Code: YEH+/-*, Activation: With metabolic activation, Evaluation Type: Evaluation A (Pre-1980)) was “inactive; positive without activation, negative with activation” and the mutagenic call (Species/Cell Type: Salmonella typhimurium (one or more of the five standard strains: TA98, TA100, TA1535, TA1537, and TA1538), Assay Type: Histidine reverse gene mutation, Ames assay, Assay Code: SAL-, Evaluation Type: Evaluation A (Pre-1980)) was “inactive; negative”.
In the case of `Cc1cc2nc3cc(C)c(N)cc3[n+](-c3ccccc3)c2cc1N`, the mutagenic call (Species/Cell Type: Bacillus subtilis (H17 vs M45), Assay Type: Rec-assay, spot test, DNA effects (bacterial DNA repair), Assay Code: REWT, Evaluation Type: Evaluation A (Pre-1980)) is reported as “no conclusion”.
In the case of `CCCCNCCCCO`, the mutagenic call (Species/Cell Type: Nonhuman, Assay Type: Chromosome aberrations in vitro, Assay Code: CY&-, Evaluation Type: Evaluation A (Pre-1980)) is reported as “inactive; negative” and the mutagenic call (Species/Cell Type: Nonhuman, Assay Type: Sister-chromatid exchange (SCE) in vitro, Assay Code: SC2T, Evaluation Type: Evaluation A (Pre-1980)) is reported as “no conclusion”.
`CCC(COS(C)(=O)=O)(COS(C)(=O)=O)COS(C)(=O)=O` was tested, and the mutagenic call (Species/Cell Type: Arabidopsis species, Assay Type: Gene mutation, Assay Code: ARM+, Evaluation Type: Evaluation A (Pre-1980)) was “active; positive”.
`O=[N+]([O-])c1ccc(Oc2c(Cl)cc(Cl)cc2Cl)cc1` was tested, and the mutagenic call (Species/Cell Type: Mammalian polychromatic erythrocytes, Assay Type: Micronucleus test, chromosome aberrations, Assay Code: MNTT, Evaluation Type: Evaluation A (Pre-1980)) was “no conclusion”.
With `CN(N=O)C(C)(C)C` the mutagenic call [1] was “inactive; negative”.
With `COC1=C(OC)C(=O)C(C/C=C(\C)CC/C=C(\C)CC/C=C(\C)CC/C=C(\C)CC/C=C(\C)CC/C=C(\C)CCC=C(C)C)=C(C)C1=O` the mutagenic call (Species/Cell Type: Human, Sex: Male, Assay Type: Sperm morphology, Assay Code: SPHT, Evaluation Type: Evaluation A (Pre-1980)) was “no conclusion”.
With `Nc1ccc(Cl)cc1` the mutagenic call [9] was “active; positive”, the mutagenic call (Species/Cell Type: Saccharomyces cerevisiae, Assay Type: Mitotic recombination or gene conversion, Assay Code: YEH-, Evaluation Type: Evaluation A (Pre-1980)) was “inactive; negative” and the mutagenic call [10] was “active; positive”.
With `Cn1c(=O)c2c([nH]c(=O)n2C)n(C)c1=O` the mutagenic call [7] was “inactive; negative”.
In the case of `CI`, the mutagenic call [9] is reported as “active; positive”, the mutagenic call (Species/Cell Type: Mouse lymphoma (L5178Y) cells, Assay Type: Forward gene mutation at the thymidine kinase (TK) locus, chromosome aberrations, Assay Code: L51+, Evaluation Type: Evaluation A (Pre-1980)) is reported as “active; positive” and the call [8] is reported as “active; positive”. The mutagenic call (Species/Cell Type: Saccharomyces cerevisiae, Assay Type: Mitotic recombination or gene conversion, Assay Code: YEH+, Evaluation Type: Evaluation A (Pre-1980)) was “active; positive” and the mutagenic call [10] was “active; positive”.
With `CC(C)CC=O` the mutagenic call [5] was “active; positive” and the mutagenic call [6] was “active; positive”.
